This is an account of results in patent US20230090742A1, “AMINOPYRIMIDINYLAMINOBENZONITRILE DERIVATIVES AS NEK2 INHIBITORS” (Sumitomo Pharma Oncology, Inc., priority 2020, published 2023).

The target of assay [1] is T1, NEK2 kinase (Accession No. NP-002488) (Homo sapiens, UniProt P51955).
T1 construct: purchased ThermoFisher Scientific (Invitrogen)
T1 sequence (P51955 1-445): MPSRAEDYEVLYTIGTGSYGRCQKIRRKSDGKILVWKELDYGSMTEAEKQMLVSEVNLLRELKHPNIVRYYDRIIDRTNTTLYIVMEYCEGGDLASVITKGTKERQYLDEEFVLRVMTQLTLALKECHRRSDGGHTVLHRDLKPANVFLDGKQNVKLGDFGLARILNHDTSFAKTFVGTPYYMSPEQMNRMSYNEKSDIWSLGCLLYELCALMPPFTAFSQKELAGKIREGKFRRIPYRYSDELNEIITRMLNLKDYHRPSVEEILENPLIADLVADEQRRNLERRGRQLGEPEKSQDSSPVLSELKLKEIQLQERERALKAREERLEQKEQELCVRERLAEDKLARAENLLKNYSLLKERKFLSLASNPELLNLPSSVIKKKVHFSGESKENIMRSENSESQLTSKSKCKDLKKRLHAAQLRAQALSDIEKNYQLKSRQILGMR
Kind of assay: HotSpot Kinase Assay, NEK2. Format: biochemical. Conditions: HotSpot Kinase Assay; read-out: NEK2 IC50. Here is the method: In this example, the compounds described herein were tested for their inhibitory activity against NEK2 and/or Aurora A using the HotSpot™ Kinase Assay (Reaction Biology Corp.). The assay was performed according to the manufacturer's protocol, as detailed below. The NEK2 kinase (Accession No. NP-002488) and Aurora A kinase (Accession No. NP-940839) for use in these assays was sourced from ThermoFisher Scientific (Invitrogen).
The base Reaction Buffer used in this experiment contained the following: 20 mM Hepes (pH 7.5), 10 mM MgCl2, 1 mM EGTA, 0.02% Brij™-35, 0.02 mg/ml BSA, 0.1 mM Na3VO4, 2 mM DTT, and 1% DMSO. The required cofactors were added individually to each kinase reaction.
Testing compounds were dissolved in 100% DMSO to a specific concentration. The serial dilution was conducted by Integra Viaflo Assist in DMSO.
The substrate was prepared in freshly prepared Reaction Buffer. The required cofactors were delivered to the substrate solution described above. NEK2 kinase or Aurora A kinase was delivered to the substrate solution and gently mixed. Next, the compounds in 100% DMSO were transferred to the kinase reaction mixture by Acoustic technology (Echo550; nanoliter range) and incubated for 20 min at room temperature. ^33P-ATP (Specific activity 10 μCi/μl) was delivered into the reaction mixture to initiate the reaction. The reaction was incubated for 2 hours at room temperature. Radioactivity was then detected by the filter-binding method. Kinase activity data were expressed as the percent remaining kinase activity in test samples compared to vehicle (dimethyl sulfoxide) reactions. IC50 values and curve fits were obtained using Prism (GraphPad Software).

The target of assay [2] is T2, NEK2 (Homo sapiens, UniProt P51955).
T2 construct: expressed in transfected cells; host or cells: HEK293
T2 sequence (P51955 1-445): T1 sequence (P51955 1-445)
Kind of assay: NanoBRET Target Engagement Intracellular Kinase Assay for NEK2 in transfected HEK293 cells. Type of assay: cell-based. Conditions: NEK2 target engagement, read-out: NanoBRET IC50. Here is the method: In this example, the compounds described herein were tested for their inhibitory activity against NEK2 using a model of in vivo activity by the NanoBRET™ Target Engagement Intracellular Kinase Assay (Reaction Biology Corp.). The assay was performed according to the manufacturer's protocol, as detailed below.
HEK293 cells were cultivated (70-80% confluence) prior to the assay. The sample was trypsinized and HEK293 cells were collected.
To prepare lipid: DNA complexes, a 10 μg/ml solution of DNA in Opti-MEM without serum was prepared that consisted of the following ratios of carrier DNA and DNA encoding NanoLuc® fusion: 9.0 μg/ml of Transfection Carrier DNA, 1.0 μg/ml of NanoLuc fusion vector DNA and 1 ml of Opti-MEM without phenol red. The solution was mixed thoroughly. 30 μl of FuGENE HD Transfection Reagent was added into each milliliter of DNA mixture to form lipid: DNA complex. The sample was mixed by inversion 10 times and then incubated at ambient temperature for 20 minutes to allow complexes to form. In a sterile, conical tube, 1 part of lipid:DNA complex was mixed with 20 parts of HEK293 cells in suspension. The resulting sample was mixed gently by inversion 5 times. The cell and lipid: DNA complex was dispensed into a sterile tissue culture dish and incubated for 22-24 hours.
Each test compound is delivered from the compound source plate to the wells of 384-well white NBS plate by Echo 550.
Step 3. Preparation of Cells with NanoBRET™ Tracer K5 Reagent:
The medium was removed from the dish with the transfected HEK293 cells via aspiration, trypsinized and cells were allowed to dissociate from the dish. Trypsin was neutralized using medium containing serum and centrifuged at 200×g for 5 minutes to pellet the cells. The cell density was adjusted to 2×10^5 cells/ml in Opti-MEM without phenol red.
The Complete 20× NanoBRET™ Tracer K5 Reagent with Tracer Dilution Buffer was prepared according to the manufacturer's instructions. One part of Complete 20× NanoBRET™ Tracer Reagent was added to 20 parts of cells in the tube. The sample was mixed gently by inversion 10 times. Next, the cell suspension was dispensed into white, 384-well NBS plates with a final tracer K5 concentration of 2 μM. The plate was incubated at 37° C., 5% CO2 for 1 hour. A separate set of samples without tracer were prepared for background correction steps.
The plate was removed from the incubator and equilibrated to room temperature for 15 minutes. The 3× Complete Substrate plus Inhibitor Solution in Assay Medium (Opti-MEMR I Reduced Serum Medium, no phenol red) was prepared just before measuring BRET. The 3× Complete Substrate plus Inhibitor Solution was added to each well of the 384-well plate and incubated for 2-3 minutes at room temperature. The donor emission wavelength (460 nm) and acceptor emission wavelength (600 nm) were measured using the Envision 2104 plate reader.
To generate raw BRET ratio values, the acceptor emission value (600 nm) was divided by the donor emission value (460 nm) for each sample. To correct for background, the BRET ratio in the absence of tracer (average of no-tracer control samples) was subtracted from the BRET ratio of each sample.
BRET Ratio=[(Acceptor sample÷Donor sample)−(Acceptor no-tracer control÷Donor no-tracer control)]
On the technique in general: In BRET a luciferase serves as donor, and the signal depends on an acceptor being close.

For orientation: IC50 means the point on the concentration scale where inhibition reaches its midpoint. With `COc1ccccc1COc1cccc(Nc2nc(Nc3ccc(N4CCNCC4)cc3)ncc2Cl)c1C#N` [Compound 11, 2-((5-chloro-2-((4-(piperazin-1-yl)phenyl)amino)pyrimidin-4-yl)amino)-6-((2-methoxybenzyl)oxy)benzonitrile], the half-maximal inhibitory concentration (IC50) in assay [1] was above 15 nM; in assay [2], above 150 nM.

On to `N#Cc1c(Nc2nc(Nc3ccc(CN4CCNCC4)cc3)ncc2Cl)cccc1OCc1ccccc1F` [Compound 15, 2-((5-chloro-2-((4-(piperazin-1-ylmethyl)phenyl)amino)pyrimidin-4-yl)amino)-6-((2-fluorobenzyl)oxy)benzonitrile], for which the IC50 in assay [1] was 5 to 15 nM; in assay [2], above 150 nM.

In the case of `N#Cc1c(Nc2nc(Nc3ccc(N4CCNCC4)cc3)ncc2Cl)cccc1OCc1c(F)cccc1F` [Compound 19, 2-((5-chloro-2-((4-(piperazin-1-yl)phenyl)amino)pyrimidin-4-yl)amino)-6-((2,6-difluorobenzyl)oxy)benzonitrile], the results for the half-inhibitory concentration (IC50) in assay [1] and in assay [2] were 5 to 15 nM and at most 50 nM, respectively.

`CN1CCN(c2ccc(Nc3ncc(Cl)c(Nc4cccc(OCc5ccccc5F)c4C#N)n3)cc2)CC1` [Compound 18, 2-((5-chloro-2-((4-(4-methylpiperazin-1-yl)phenyl)amino)pyrimidin-4-yl)amino)-6-((2-fluorobenzyl)oxy)benzonitrile]: the IC50 in assay [1] is at most 5 nM; in assay [2], 50 to 150 nM.

Turning to `N#Cc1c(Nc2nc(Nc3ccc(C(=O)N4CCNCC4)cc3)ncc2Cl)cccc1OCc1ccccc1F` [Compound 6, 2-((5-chloro-2-((4-(piperazine-1-carbonyl)phenyl)amino)pyrimidin-4-yl)amino)-6-((2-fluorobenzyl)oxy)benzonitrile], the 50% inhibitory concentration (IC50) in assay [1] is above 15 nM; in assay [2], above 150 nM.

In the case of `C[C@@H](Oc1cccc(Nc2nc(Nc3ccc(N4CCN(C)CC4)cc3)ncc2Cl)c1C#N)c1ccccc1F` [Compound 4, (R)-2-((5-chloro-2-((4-(4-methylpiperazin-1-yl)phenyl)amino)pyrimidin-4-yl)amino)-6-(1-(2-fluorophenyl)ethoxy)benzonitrile], the IC50 in assay [1] was above 15 nM; in assay [2], above 150 nM.

For `N#Cc1c(Nc2nc(Nc3ccc(N4CCNCC4)cc3)ncc2Cl)cccc1OCc1ccc(F)cc1` [Compound 13, 2-((5-chloro-2-((4-(piperazin-1-yl)phenyl)amino)pyrimidin-4-yl)amino)-6-((4-fluorobenzyl)oxy)benzonitrile], the half-inhibitory concentration (IC50) in assay [1] was above 15 nM; in assay [2], above 150 nM.

`N#Cc1c(Nc2nc(Nc3ccc(N4CCNCC4)nc3)ncc2Cl)cccc1OCc1ccccc1F` [Compound 8, 2-((5-chloro-2-((6-(piperazin-1-yl)73yridine-3-yl)amino)pyrimidin-4-yl)amino)-6-((2-fluorobenzyl)oxy)benzonitrile]: the half-maximal inhibitory concentration (IC50) in assay [1] was 5 to 15 nM; in assay [2], above 150 nM.

As to `C[C@H](Oc1cccc(Nc2nc(Nc3ccc(N4CCN(C)CC4)cc3)ncc2Cl)c1C#N)c1ccccc1F` [Compound 3, (S)-2-((5-chloro-2-((4-(4-methylpiperazin-1-yl)phenyl)amino)pyrimidin-4-yl)amino)-6-(1-(2-fluorophenyl)ethoxy)benzonitrile], the IC50 in assay [1] is at most 5 nM; in assay [2], at most 50 nM.

In the case of `N#Cc1c(Nc2nc(Nc3ccc(N4CCN(CCO)CC4)cc3)ncc2Cl)cccc1OCc1ccccc1F` [Compound 17, 2-((5-chloro-2-((4-(4-(2-hydroxyethyl)piperazin-1-yl)phenyl)amino)pyrimidin-4-yl)amino)-6-((2-fluorobenzyl)oxy)benzonitrile], the IC50 in assay [1] is at most 5 nM; in assay [2], 50 to 150 nM.

Consider `COc1cc(Nc2ncc(Cl)c(Nc3cccc(OCc4ccccc4F)c3C#N)n2)ccc1N1CCNCC1` [Compound 9, 2-((5-chloro-2-((3-methoxy-4-(piperazin-1-yl)phenyl)amino)pyrimidin-4-yl)amino)-6-((2-fluorobenzyl)oxy)benzonitrile], for which the 50% inhibitory concentration (IC50) is at most 5 nM in assay [1] and at most 50 nM in assay [2].

Turning to `N#Cc1c(Nc2nc(Nc3ccc(N4CCNCC4)cc3)ncc2Cl)cccc1OCc1cccc(F)c1` [Compound 14, 2-((5-chloro-2-((4-(piperazin-1-yl)phenyl)amino)pyrimidin-4-yl)amino)-6-((3-fluorobenzyl)oxy)benzonitrile], the figures for the IC50 in assay [1] and in assay [2] were above 15 nM and above 150 nM, respectively.

For the compound `N#Cc1c(Nc2nc(Nc3ccc(C4CCNCC4)cc3)ncc2Cl)cccc1OCc1ccccc1F` [Compound 27, 2-((5-chloro-2-((4-(piperidin-4-yl)phenyl)amino)pyrimidin-4-yl)amino)-6-((2-fluorobenzyl)oxy)benzonitrile], the IC50 in assay [1] is at most 5 nM; in assay [2], 50 to 150 nM.

Turning to `N#Cc1c(Nc2nc(Nc3cnn(C4CCNCC4)c3)ncc2Cl)cccc1OCc1ccccc1F` [Compound 31, 2-((5-chloro-2-((1-(piperidin-4-yl)-1H-pyrazol-4-yl)amino)pyrimidin-4-yl)amino)-6-((2-fluorobenzyl)oxy)benzonitrile], the results for the 50% inhibitory concentration (IC50) in assay [1] and in assay [2] were 5 to 15 nM and above 150 nM, respectively.

With `N#Cc1c(Nc2nc(Nc3ccc(CN4CCOCC4)cc3)ncc2Cl)cccc1OCc1ccccc1F` [Compound 1, 2-((5-chloro-2-((4-(morpholinomethyl)phenyl)amino)pyrimidin-4-yl)amino)-6-((2-fluorobenzyl)oxy)benzonitrile], the half-maximal inhibitory concentration (IC50) was above 15 nM in assay [1] and at most 50 nM in assay [2].

As for `COc1cc(N2CCNCC2)ccc1Nc1ncc(Cl)c(Nc2cccc(OCc3ccccc3F)c2C#N)n1` [Compound 7, 2-((5-chloro-2-((2-methoxy-4-(piperazin-1-yl)phenyl)amino)pyrimidin-4-yl)amino)-6-((2-fluorobenzyl)oxy)benzonitrile], the IC50 in assay [1] was at most 5 nM; in assay [2], above 150 nM.
